Results as given in patent US12226405B2, “Compounds and compositions for inhibiting the activity of HIF2-alpha and their methods of use” (Novartis AG, priority 2020, dated 2025).

Experiments:
[1] = 25° C.; for hygroscopicity assignment (DVS): 0 to 95% RH
Description: Dynamic vapor sorption was performed using a SMS Advantage system. Approximately 10 mg of sample was subjected to varying humidities between 0% RH and 95% RH at 25° C. Evaluation was performed using the system software.

[2] = system: HIF2α-regulated expression of the endogenous target gene hEGLN3 in 786-O cells; test: Cellular iScript assay for HIF2α (quantitative RT-PCR of hEGLN3); type: cell-based, human; settings: Homo sapiens, 786-0, 48 hours incubation
Summary of the method: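 786-O cells were exposed to eleven 2-fold compound dilutions for 48 h at 37° C. Lysates underwent one-step TaqMan qRT-PCR for hEGLN3 with beta-actin as reference; 2^(−ΔΔCt) versus DMSO, as % of control, was fit with a four-parameter model to give IC50.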

[3] = target: T1, HIF2α PAS-B domain (236-350, biotinylated on the N-terminus) (Homo sapiens (Human), UniProt Q99814); test: biochemical
T1 sequence (Q99814 236-350): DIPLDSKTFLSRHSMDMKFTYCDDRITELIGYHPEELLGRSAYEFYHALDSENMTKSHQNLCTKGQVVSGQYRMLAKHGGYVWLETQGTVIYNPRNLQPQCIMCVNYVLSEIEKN
Description: (§1) The assay buffer contained 50 mM Tris-HCl pH7 (Sigma), 20 mM NaCl (Fluka), 0.02% BSA (Sigma), 0.005% Triton X-100 (Pierce) and 1 mM DTT (Fluka). After a 30 min incubation period, 5 μL Streptavidin PVT SPA Beads (Perkin Elmer) at 1.2 mg/mL, diluted in the buffer, were added.

[4] = system: HIF2α-dependent transcription in 786-O-HRE-Luc cells; test: In vitro cellular hypoxia response element (HRE) reporter gene assay (RGA) for HIF2α; type: cell-based, human; settings: Homo sapiens, 24 hours incubation
Summary of the method: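 Renal carcinoma cells carrying a 4×HRE-driven PEST-destabilised firefly luciferase were treated a day after seeding with eleven 2-fold compound dilutions (0.1% DMSO) for 24 h at 37° C. BrightGlo luminescence, background-subtracted and expressed as % of DMSO control, was fitted four-parametrically for IC50.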

[5] = target: T1, HIF2α PAS-B domain (236-350, biotinylated on the N-terminus); test: In vitro SPA with the PAS-B domain of HIF2α (competition binding with radio-ligand); settings: read-out: affinity of the non-labeled ligand, IC50
Description: as §1

FC(F)OC1=CC(C(F)(F)F)=CN2C[C@@]3(CCC(F)(F)c4c3ccnc4Cl)N=C12.O=C(O)/C=C/C(=O)O
hygroscopicity assignment (DVS) [1]: non-hygroscopic | mass difference between 0 and 95% RH (DVS) [1]: less than 0.1 weight %

FC(F)OC1=CC(C(F)(F)F)=CN2C[C@@]3(CCC(F)(F)c4c3ccnc4Cl)N=C12
hygroscopicity assignment (DVS) [1]: non-hygroscopic | mass difference between 0 and 95% RH (DVS) [1]: less than 0.05 weight %

O[C@@H]1c2c(ccc(Br)c2F)[C@]2(CN3C=C(C(F)(F)F)C=C(OC(F)F)C3=N2)CC1(F)F [Example 19, (1′S,4′R)-6′-bromo-8-(difluoromethoxy)-3′,3′,5′-trifluoro-6-(trifluoromethyl)-3′,4′-dihydro-2′H,3H-spiro[imidazo[1,2-a]pyridine-2,1′-naphthalen]-4′-ol]
IC50 [2]: 144 nM | IC50 [3]: 36 nM | IC50 [4]: 446 nM

O=C1c2c(F)cccc2[C@@]2(C[C@H]1F)CN1C=C(C(F)(F)F)C=C(OC(F)F)C1=N2 [Example 20, (1′S,3′R)-8-(difluoromethoxy)-3′,5′-difluoro-6-(trifluoromethyl)-2′H,3H-spiro[imidazo[1,2-a]pyridine-2,1′-naphthalen]-4′(3′H)-one]
IC50 [2]: 155 nM | IC50 [3]: 15 nM | IC50 [4]: 892 nM

N#CC1=CN2C[C@@]3(CSCc4c(F)cccc43)N=C2C(OC(F)F)=C1 [Example 68, (S)-8-(difluoromethoxy)-8′-fluoro-3H-spiro[imidazo[1,2-a]pyridine-2,4′-isothiochroman]-6-carbonitrile]
IC50 [2]: 111 nM | IC50 [3]: 11 nM | IC50 [4]: 670 nM

O=[N+]([O-])c1c(Nc2cc(F)cc(Cl)c2)ccc2nonc12 [N-(3-chloro-5-fluorophenyl-4-t)-4-nitrobenzo[c][1,2,5]oxadiazol-7-t-5-amine, reference compound]
IC50 [5]: 82 ± 18 nM
